Earlier results in patent US20210308030A1, “SYSTEM, METHODS AND KITS FOR DIAGNOSIS AND TREATMENT OF FEMALE PATTERN HAIR LOSS” (Follea International, priority 2020, published 2021).

Assays:
FPHL patients = details: both 2% and 5% minoxidil

Structure (SMILES)	water solubility	risk for adverse events (FPHL patients)
O=c1c(-c2ccc(O)cc2)coc2cc(O)ccc12 [daidzein]	poor	
O=c1c(-c2ccc(O)cc2)coc2cc(O)cc(O)c12 [genistein]	poor	
Nc1cc(N2CCCCC2)nc(N)[n+]1[O-] [minoxidil]		low
